For one series, the target named is T1, CXCR4 (Homo sapiens, UniProt P61073).
T1 construct: endogenous in cells; host or cells: Jurkat T-cell leukemia cells
In words: competitive binding assay on Jurkat cells with [125I]FC131 as radioligand. How it is done: For in vitro experiments, the Jurkat T - cell line was used. […] The cell line was cultured at 37 °C in a humidified atmosphere with 5 % CO2 and passaged two to three times a week, depending on the cell count.
Jurkat cells (4 × 10^5 cells per vial) were incubated with the respective peptide of interest at the final concentrations ranging from 10^−11 to 10^−5 M and app. […] The total sample volume was 250 μL. After an incubation time of 120 min, the vials were centrifuged at 1300 rpm (Heraeus Megafuge, Thermo) for 3 min and the supernatant was removed. The cells were washed twice with 200 μL ice-cold Hank’s balanced salt solution (HBSS). After each washing step, the samples were centrifuged and the supernatant removed. Finally, the amount of displaced and bound radioligand in the combined fractions of the supernatant and the cell pellet was quantified. The half maximal inhibitory concentration (IC50) values were determined using GraphPad Prism software.

For a further series, the system named is hCXCR4. To be noted: read-out: affinity towards hCXCR4; cited from earlier work.
For series [1], the system named is OH1 human small cell lung cancer tumor-bearing mice. The note with it: mouse, in vivo, 1 h; cited from earlier work.
[2] abbreviates: Jurkat T-cells, 4 × 10^5 cells per vial, app. 0.1 nM [125I]FC131, 120 min incubation, mean ± SD (n = 3).

The values that follow come from paper PMC4844575, “The influence of different metal-chelate conjugates of pentixafor on the CXCR4 affinity” (EJNMMI Research, 2016).

Read-outs that look alike come from different tables or passages of the source. Where a SMILES comes first, the peptide text is derived from it. Side-chain parts run from the residue outwards. [ ]: non-standard residue; d: D form. The star is where a group is joined. DFO(CSNHC6H4NHCS) = CC(=O)N(O)CCCCCNC(=O)CCC(=O)N(O)CCCCCNC(=O)CCC(=O)N(O)CCCCCNC(=S)Nc1ccc(NC(=S)*)cc1; DOTAGA = O=C(O)CN1CCN(CC(=O)O)CCN(C(CCC(=O)*)C(=O)O)CCN(CC(=O)O)CC1; DOTA = O=C(O)CN1CCN(CC(=O)O)CCN(CC(=O)*)CCN(CC(=O)O)CC1; NODAGA = O=C(O)CN1CCN(CC(=O)O)CCN(C(CCC(=O)*)C(=O)O)CC1; X2 = O=C(O)CN1CCN(CC(=O)O)CCN(Cc2ccc(NC(=S)*)cc2)CC1; NOTA = O=C(O)CN1CCN(CC(=O)O)CCN(CC(=O)*)CC1; 2Nal = N[C@@H](Cc1ccc2ccccc2c1)C(=O)O; dNMeOrn = CN[C@H](CCCN)C(=O)O; 4Amb = NCc1ccc(C(=O)O)cc1

T1 sequence (P61073 whole entry): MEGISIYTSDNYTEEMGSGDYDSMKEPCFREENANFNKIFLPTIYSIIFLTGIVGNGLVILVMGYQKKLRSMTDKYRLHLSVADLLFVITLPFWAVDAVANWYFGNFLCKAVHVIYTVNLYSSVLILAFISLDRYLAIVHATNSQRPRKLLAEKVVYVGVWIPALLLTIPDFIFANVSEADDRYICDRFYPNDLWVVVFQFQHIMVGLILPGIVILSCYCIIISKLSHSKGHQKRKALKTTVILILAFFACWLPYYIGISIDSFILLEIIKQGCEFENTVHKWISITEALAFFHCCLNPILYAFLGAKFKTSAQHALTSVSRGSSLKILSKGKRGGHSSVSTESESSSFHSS

On to `CN1C(=O)[C@@H](Cc2ccc(O)cc2)NC(=O)CNC(=O)[C@H](Cc2ccc3ccccc3c2)NC(=O)[C@H](CCCNC(=N)N)NC(=O)[C@H]1CCCNC(=O)c1ccc(CNC(=O)CCC(C(=O)O)N2CCN(CC(=O)O)CCN(CC(=O)O)CCN(CC(=O)O)CC2)cc1` (some centres unmarked) [Compound 2] (cyclo([2Nal]G[dY][dNMeOrn]([4Amb-DOTAGA])R)), for which, on CXCR4, the IC50 turned out to be 654 ± 263 nM. Regarding `CN1C(=O)[C@@H](Cc2ccc(O)cc2)NC(=O)CNC(=O)[C@H](Cc2ccc3ccccc3c2)NC(=O)[C@H](CCCNC(=N)N)NC(=O)[C@H]1CCCNC(=O)c1ccc(CNC(=O)CN2CCN(CC(=O)O)CCN(CC(=O)O)CC2)cc1` [Compound 3] (cyclo([2Nal]G[dY][dNMeOrn]([4Amb-NOTA])R)), the IC50 at CXCR4 was 253 ± 49 nM. On CXCR4, `CN1C(=O)[C@@H](Cc2ccc(O)cc2)NC(=O)CNC(=O)[C@H](Cc2ccc3ccccc3c2)NC(=O)[C@H](CCCNC(=N)N)NC(=O)[C@H]1CCCNC(=O)c1ccc(CNC(=O)CCC(C(=O)O)N2CCN(CC(=O)O)CCN(CC(=O)O)CC2)cc1` (some centres unmarked) [Compound 4] (cyclo([2Nal]G[dY][dNMeOrn]([4Amb-NODAGA])R)) registered an IC50 of 275 ± 106 nM.

Consider `CN1C(=O)[C@@H](Cc2ccc(O)cc2)NC(=O)CNC(=O)[C@H](Cc2ccc3ccccc3c2)NC(=O)[C@H](CCCNC(=N)N)NC(=O)[C@H]1CCCNC(=S)Nc1ccc(CN2CCN(CC(=O)O)CCN(CC(=O)O)CC2)cc1` [Compound 5] (cyclo([2Nal]G[dY][dNMeOrn](X2)R)), for which the IC50 at CXCR4 came out at 115 ± 24 nM. Same read-out and setting: then `CN1C(=O)[C@@H](Cc2ccc(O)cc2)NC(=O)CNC(=O)[C@H](Cc2ccc3ccccc3c2)NC(=O)[C@H](CCCNC(=N)N)NC(=O)[C@H]1CCCNC(=O)c1ccc(CNC(=S)Nc2ccc(CC(CN(CCN(CC(=O)O)CC(=O)O)CC(=O)O)N(CC(=O)O)CC(=O)O)cc2)cc1` (some centres unmarked) [Compound 7], with 200 ± 73 nM; and `CC(=O)N(O)CCCCCNC(=O)CCC(=O)N(O)CCCCCNC(=O)CCC(=O)N(O)CCCCCNC(=S)Nc1ccc(NC(=S)NCc2ccc(C(=O)NCCC[C@@H]3C(=O)N[C@@H](CCCNC(=N)N)C(=O)N[C@@H](Cc4ccc5ccccc5c4)C(=O)NCC(=O)N[C@H](Cc4ccc(O)cc4)C(=O)N3C)cc2)cc1` [Compound 8] (cyclo([2Nal]G[dY][dNMeOrn]([4Amb-DFO(CSNHC6H4NHCS)])R)), with 105 ± 35 nM. At CXCR4 (setting [2]), `CN1C(=O)[C@@H](Cc2ccc(O)cc2)NC(=O)CNC(=O)[C@H](Cc2ccc3ccccc3c2)NC(=O)[C@H](CCCNC(=N)N)NC(=O)[C@H]1CCCNC(=O)c1ccc(CNC(=O)CN2CCN(CC(=O)O)CCN(CC(=O)O)CCN(CC(=O)O)CC2)cc1` [[^natBi^3+]1] [metal not drawn] (cyclo([dY][dNMeOrn]([4Amb-DOTA])R[2Nal]G)) had an IC50 of 22.1 ± 7 nM.

In turn, `CN1C(=O)[C@@H](Cc2ccc(O)cc2)NC(=O)CNC(=O)[C@H](Cc2ccc3ccccc3c2)NC(=O)[C@H](CCCNC(=N)N)NC(=O)[C@H]1CCCNC(=O)c1ccc(CNC(=O)CCC(C(=O)O)N2CCN(CC(=O)O)CCN(CC(=O)O)CCN(CC(=O)O)CC2)cc1` (some centres unmarked) [[^natBi^3+]2] [metal not drawn] (cyclo([2Nal]G[dY][dNMeOrn]([4Amb-DOTAGA])R)) registered an IC50 on CXCR4 (setting [2]) of 29.4 ± 7.6 nM. As for `CN1C(=O)[C@@H](Cc2ccc(O)cc2)NC(=O)CNC(=O)[C@H](Cc2ccc3ccccc3c2)NC(=O)[C@H](CCCNC(=N)N)NC(=O)[C@H]1CCCNC(=O)c1ccc(CNC(=O)CN2CCN(CC(=O)O)CCN(CC(=O)O)CCN(CC(=O)O)CC2)cc1` [[^natCu^2+]1] [metal not drawn] (cyclo([dY][dNMeOrn]([4Amb-DOTA])R[2Nal]G)), the IC50 on CXCR4 (setting [2]) stood at 131 ± 11 nM. The compound `CN1C(=O)[C@@H](Cc2ccc(O)cc2)NC(=O)CNC(=O)[C@H](Cc2ccc3ccccc3c2)NC(=O)[C@H](CCCNC(=N)N)NC(=O)[C@H]1CCCNC(=O)c1ccc(CNC(=O)CCC(C(=O)O)N2CCN(CC(=O)O)CCN(CC(=O)O)CCN(CC(=O)O)CC2)cc1` (some centres unmarked) [[^natCu^2+]2] [metal not drawn] (cyclo([2Nal]G[dY][dNMeOrn]([4Amb-DOTAGA])R)) showed an IC50 on CXCR4 (setting [2]) of 1160 ± 220 nM.

On CXCR4 (setting [2]), `CN1C(=O)[C@@H](Cc2ccc(O)cc2)NC(=O)CNC(=O)[C@H](Cc2ccc3ccccc3c2)NC(=O)[C@H](CCCNC(=N)N)NC(=O)[C@H]1CCCNC(=O)c1ccc(CNC(=O)CN2CCN(CC(=O)O)CCN(CC(=O)O)CC2)cc1` [[^natCu^2+]3] [metal not drawn] (cyclo([2Nal]G[dY][dNMeOrn]([4Amb-NOTA])R)) returned an IC50 of 46.1 ± 26 nM. On CXCR4 (setting [2]), `CN1C(=O)[C@@H](Cc2ccc(O)cc2)NC(=O)CNC(=O)[C@H](Cc2ccc3ccccc3c2)NC(=O)[C@H](CCCNC(=N)N)NC(=O)[C@H]1CCCNC(=O)c1ccc(CNC(=O)CCC(C(=O)O)N2CCN(CC(=O)O)CCN(CC(=O)O)CC2)cc1` (some centres unmarked) [[^natCu^2+]4] [metal not drawn] (cyclo([2Nal]G[dY][dNMeOrn]([4Amb-NODAGA])R)) registered an IC50 of 343 ± 10 nM. For the compound `CN1C(=O)[C@@H](Cc2ccc(O)cc2)NC(=O)CNC(=O)[C@H](Cc2ccc3ccccc3c2)NC(=O)[C@H](CCCNC(=N)N)NC(=O)[C@H]1CCCNC(=O)c1ccc(CNC(=O)CN2CCN(CC(=O)O)CCN(CC(=O)O)CC2)cc1` [[^natF]AlF-3] (cyclo([2Nal]G[dY][dNMeOrn]([4Amb-NOTA])R)), the IC50 on CXCR4 (setting [2]) turned out to be 220 ± 57 nM. As to `CN1C(=O)[C@@H](Cc2ccc(O)cc2)NC(=O)CNC(=O)[C@H](Cc2ccc3ccccc3c2)NC(=O)[C@H](CCCNC(=N)N)NC(=O)[C@H]1CCCNC(=S)Nc1ccc(CN2CCN(CC(=O)O)CCN(CC(=O)O)CC2)cc1` [[^natF]AlF-5] (cyclo([2Nal]G[dY][dNMeOrn](X2)R)), the IC50 on CXCR4 (setting [2]) came out at 329 ± 49 nM. As for `CN1C(=O)[C@@H](Cc2ccc(O)cc2)NC(=O)CNC(=O)[C@H](Cc2ccc3ccccc3c2)NC(=O)[C@H](CCCNC(=N)N)NC(=O)[C@H]1CCCNC(=O)c1ccc(CNC(=O)CCC(C(=O)O)N2CCN(CC(=O)O)CCN(CC(=O)O)CCN(CC(=O)O)CC2)cc1` (some centres unmarked) [[^natGa^3+]2] [metal not drawn] (cyclo([2Nal]G[dY][dNMeOrn]([4Amb-DOTAGA])R)), the IC50 on CXCR4 (setting [2]) was 380 ± 102 nM. At CXCR4 (setting [2]), `CN1C(=O)[C@@H](Cc2ccc(O)cc2)NC(=O)CNC(=O)[C@H](Cc2ccc3ccccc3c2)NC(=O)[C@H](CCCNC(=N)N)NC(=O)[C@H]1CCCNC(=O)c1ccc(CNC(=O)CN2CCN(CC(=O)O)CCN(CC(=O)O)CC2)cc1` [[^natGa^3+]3] [metal not drawn] (cyclo([2Nal]G[dY][dNMeOrn]([4Amb-NOTA])R)) came in with an IC50 of 17.8 ± 7.7 nM.

Take `CN1C(=O)[C@@H](Cc2ccc(O)cc2)NC(=O)CNC(=O)[C@H](Cc2ccc3ccccc3c2)NC(=O)[C@H](CCCNC(=N)N)NC(=O)[C@H]1CCCNC(=O)c1ccc(CNC(=O)CCC(C(=O)O)N2CCN(CC(=O)O)CCN(CC(=O)O)CC2)cc1` (some centres unmarked) [[^natGa^3+]4] [metal not drawn] (cyclo([2Nal]G[dY][dNMeOrn]([4Amb-NODAGA])R)): at CXCR4 (setting [2]), the IC50 came out at 342 ± 72 nM. On CXCR4 (setting [2]), `CN1C(=O)[C@@H](Cc2ccc(O)cc2)NC(=O)CNC(=O)[C@H](Cc2ccc3ccccc3c2)NC(=O)[C@H](CCCNC(=N)N)NC(=O)[C@H]1CCCNC(=O)c1ccc(CNC(=O)CN2CCN(CC(=O)O)CCN(CC(=O)O)CCN(CC(=O)O)CC2)cc1` [[^natLu^3+]1] [metal not drawn] (cyclo([dY][dNMeOrn]([4Amb-DOTA])R[2Nal]G)) returned an IC50 of 40.9 ± 12 nM. Consider `CN1C(=O)[C@@H](Cc2ccc(O)cc2)NC(=O)CNC(=O)[C@H](Cc2ccc3ccccc3c2)NC(=O)[C@H](CCCNC(=N)N)NC(=O)[C@H]1CCCNC(=O)c1ccc(CNC(=O)CCC(C(=O)O)N2CCN(CC(=O)O)CCN(CC(=O)O)CCN(CC(=O)O)CC2)cc1` (some centres unmarked) [[^natLu^3+]2] [metal not drawn] (cyclo([2Nal]G[dY][dNMeOrn]([4Amb-DOTAGA])R)), for which the IC50 on CXCR4 (setting [2]) came to 188 ± 2.8 nM.

At CXCR4 (setting [2]), `CN1C(=O)[C@@H](Cc2ccc(O)cc2)NC(=O)CNC(=O)[C@H](Cc2ccc3ccccc3c2)NC(=O)[C@H](CCCNC(=N)N)NC(=O)[C@H]1CCCNC(=O)c1ccc(CNC(=O)CCC(C(=O)O)N2CCN(CC(=O)O)CCN(CC(=O)O)CCN(CC(=O)O)CC2)cc1` (some centres unmarked) [[^natY^3+]2] [metal not drawn] (cyclo([2Nal]G[dY][dNMeOrn]([4Amb-DOTAGA])R)) showed an IC50 of 126 ± 89 nM. In the case of `CC(=O)N(O)CCCCCNC(=O)CCC(=O)N(O)CCCCCNC(=O)CCC(=O)N(O)CCCCCNC(=S)Nc1ccc(NC(=S)NCc2ccc(C(=O)NCCC[C@@H]3C(=O)N[C@@H](CCCNC(=N)N)C(=O)N[C@@H](Cc4ccc5ccccc5c4)C(=O)NCC(=O)N[C@H](Cc4ccc(O)cc4)C(=O)N3C)cc2)cc1` [[^natZr^4+]8, metal not drawn] (cyclo([2Nal]G[dY][dNMeOrn]([4Amb-DFO(CSNHC6H4NHCS)])R)), at CXCR4 (setting [2]), the IC50 was determined as 148 ± 27 nM. Turning to “cyclo(-D-Tyr-N-Me-D-Orn(aminomethylbenzoyl (AMB)-DOTA)-L-Arg-L-2-Nal-Gly-) [[^68Ga]pentixafor]”, the IC50 in the series on hCXCR4 was 5 nM. Further, in series [1], the “uptake in CXCR4-expressing tissue (tumor)” value is 6.16 % ± 1.16 % ID/g.
